Patent EP0466251A1, “Elfamycin-resistant mutants” (priority 1990, dated 1992)

What was measured:
SrEF-Tu A378T = biological target: T1, SrEF-Tu A378T (Streptomyces ramocissimus, UniProt P29542, A379T); assay: elfamycin binding visualized by non-denaturing PAGE; set-up: species or system S. ramocissimus; conditions: 25 µM aurodox, 15 minutes at 37°C; Western blotting detection
T1 construct: made in house; host or cells: E. coli JM101
Protocol: (§1) Susceptibility of the isolated EF-Tu to elfamycin is tested in elfamycin binding studies (G. Chinali et al., Eur. J. Biochem. 75 (1977) 55-65,) and in studies on the inhibition of EF-Tu dependent peptide synthesis (C. Glöckner and H. Wolf, cited above). Still another direct elfamycin binding assay has been developed in which the capacity of the EF-Tu protein to bind elfamycins can be visualized by a change in EF-Tu protein migration in the presence of the elfamycin by non-denaturing PAGE (polyacrylamide gel electrophoresis). Upon elfamycin binding to EF-Tu.GDP, a ternary complex is formed which is more negatively charged than the binary EF-Tu.GDP complex (B. Kraal et al, 1989, in The Guanine-Nucleotide Binding Proteins, pp 121-129, Plenum Press, New York). Consequently elfamycin binding, using e.g. aurodox, to Escherichia coli wild-type EF-Tu increases the migration distance into a non-denaturing polyacrylamide gel. Both the methods of peptide synthesis inhibition and visualization of elfamycin binding are the preferred techniques to determine the effect of elfamycin binding on EF-Tu functioning. These susceptibility assays are important if increased elfamycin resistance of EF-Tu has to be established.
(§2) For direct visualization of the elfamycin binding capacity, the mutant proteins were expressed in E. coli JM101 essentially as described in Example 3. Subsequently, a GDP stabilized S-30, S-100, or purified SrEF-Tu sample was prepared, and incubated with 25 µM aurodox for 15 minutes at 37°C. These samples, and control samples without aurodox were then subjected to non-denaturing 10% polyacrylamide gels and electrophoresed. Detection of the SrEF-Tu species was performed by the Western blotting technique using SrEF-Tu antibodies (Example 1). […] This experiment thus established that elfamycin resistance is most likely the effect of a reduced binding of the elfamycin to the mutant SrEF-Tu proteins.

SrEF-Tu A378F = biological target: T2, SrEF-Tu A378F (Streptomyces ramocissimus, UniProt P29542, A379F); assay: as above; set-up: species or system S. ramocissimus; conditions: 25 µM aurodox, 15 minutes at 37°C; Western blotting detection
T2 construct: made in house; host or cells: E. coli JM101
Protocol: as §1, §2

SrEF-Tu A378V = biological target: T3, SrEF-Tu A378V (Streptomyces ramocissimus, UniProt P29542, A379V); assay: as above; set-up: species or system S. ramocissimus; conditions: 25 µM aurodox, 15 minutes at 37°C; Western blotting detection
T3 construct: made in house; host or cells: E. coli JM101
Protocol: as §1, §2

SrEF-Tu A378P = biological target: T4, SrEF-Tu A378P (Streptomyces ramocissimus, UniProt P29542, A379P); assay: as above; set-up: species or system S. ramocissimus; conditions: 25 µM aurodox, 15 minutes at 37°C; Western blotting detection
T4 construct: made in house; host or cells: E. coli JM101
Protocol: as §1, §2

[1] = biological target: T5, wild-type S. ramocissimus EF-Tu (Streptomyces ramocissimus, UniProt P29542); assay: as above; conditions: 25 µM aurodox, 15 minutes at 37°C; Western blotting detection
T5 construct: made in house; host or cells: E. coli JM101 (pUSrT1-1)
Protocol: as §1
For direct visualization of the elfamycin binding capacity, the mutant proteins were expressed in E. coli JM101 essentially as described in Example 3. […]

[2] = biological target: T6, major EF-Tu species of S. ramocissimus strain R1V (Streptomyces ramocissimus, UniProt P29542, A379V); assay: direct elfamycin binding assay on S-100 extract; conditions: S-100 extract of strain R1V; 25 µM Aurodox
T6 construct: an S-100 extract was prepared from a culture of S. ramocissimus strain R1V; endogenous in cells; host or cells: S. ramocissimus strain R1V (chromosomal tuf1 replaced by the A378V allele)
Protocol: as §2
To establish that S. ramocissimus strain R1V actually expresses the mutated Srtuf1 gene as the main EF-Tu species, an S-100 extract was prepared from a culture of S. ramocissimus strain R1V essentially as described in Example 1. Subsequently this extract was subjected to the direct elfamycin binding assay outlined in Example 6.

T4 sequence (P29542 whole entry A379P): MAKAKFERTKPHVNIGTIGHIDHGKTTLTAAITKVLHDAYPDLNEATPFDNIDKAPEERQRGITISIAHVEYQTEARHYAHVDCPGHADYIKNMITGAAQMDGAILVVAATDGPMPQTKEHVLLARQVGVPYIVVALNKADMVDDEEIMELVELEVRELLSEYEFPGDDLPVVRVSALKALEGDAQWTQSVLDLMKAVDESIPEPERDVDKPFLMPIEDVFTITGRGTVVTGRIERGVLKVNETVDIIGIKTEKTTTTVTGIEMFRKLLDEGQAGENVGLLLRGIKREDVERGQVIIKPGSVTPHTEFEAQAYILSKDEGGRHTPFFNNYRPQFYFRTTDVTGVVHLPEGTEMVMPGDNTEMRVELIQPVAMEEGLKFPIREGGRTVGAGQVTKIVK
T1 sequence (P29542 whole entry A379T): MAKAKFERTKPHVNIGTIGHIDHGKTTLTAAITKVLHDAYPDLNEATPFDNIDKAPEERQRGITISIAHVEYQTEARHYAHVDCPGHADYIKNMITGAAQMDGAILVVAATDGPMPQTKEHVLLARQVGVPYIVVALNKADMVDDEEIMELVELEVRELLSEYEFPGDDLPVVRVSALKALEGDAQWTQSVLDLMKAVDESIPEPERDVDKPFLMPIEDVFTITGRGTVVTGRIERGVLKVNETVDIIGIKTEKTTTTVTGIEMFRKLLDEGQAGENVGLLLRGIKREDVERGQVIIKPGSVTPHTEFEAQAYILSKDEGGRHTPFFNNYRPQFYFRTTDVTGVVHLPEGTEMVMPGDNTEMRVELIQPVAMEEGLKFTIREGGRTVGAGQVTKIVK
T5 sequence (P29542 whole entry): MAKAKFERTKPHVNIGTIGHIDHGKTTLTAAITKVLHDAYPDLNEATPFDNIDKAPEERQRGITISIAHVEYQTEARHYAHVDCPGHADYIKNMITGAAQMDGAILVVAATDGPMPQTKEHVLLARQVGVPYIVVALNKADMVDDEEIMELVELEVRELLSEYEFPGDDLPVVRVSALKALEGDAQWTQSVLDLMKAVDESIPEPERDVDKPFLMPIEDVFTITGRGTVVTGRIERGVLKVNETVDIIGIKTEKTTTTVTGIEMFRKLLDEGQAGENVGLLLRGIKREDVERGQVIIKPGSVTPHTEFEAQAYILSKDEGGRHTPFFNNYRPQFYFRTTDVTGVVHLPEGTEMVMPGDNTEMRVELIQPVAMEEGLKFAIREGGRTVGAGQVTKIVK
T6 sequence (P29542 whole entry A379V): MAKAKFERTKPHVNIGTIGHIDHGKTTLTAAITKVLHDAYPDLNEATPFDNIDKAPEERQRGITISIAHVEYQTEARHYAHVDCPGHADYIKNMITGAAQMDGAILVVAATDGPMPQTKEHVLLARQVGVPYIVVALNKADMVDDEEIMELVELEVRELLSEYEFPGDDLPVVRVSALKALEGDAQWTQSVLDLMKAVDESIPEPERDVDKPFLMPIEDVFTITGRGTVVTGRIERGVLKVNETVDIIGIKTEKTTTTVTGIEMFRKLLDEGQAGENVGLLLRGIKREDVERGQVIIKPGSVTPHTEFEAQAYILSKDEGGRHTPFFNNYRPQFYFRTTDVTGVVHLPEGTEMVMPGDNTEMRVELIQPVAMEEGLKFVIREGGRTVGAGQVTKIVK
T3 sequence (P29542 whole entry A379V): as above
T2 sequence (P29542 whole entry A379F): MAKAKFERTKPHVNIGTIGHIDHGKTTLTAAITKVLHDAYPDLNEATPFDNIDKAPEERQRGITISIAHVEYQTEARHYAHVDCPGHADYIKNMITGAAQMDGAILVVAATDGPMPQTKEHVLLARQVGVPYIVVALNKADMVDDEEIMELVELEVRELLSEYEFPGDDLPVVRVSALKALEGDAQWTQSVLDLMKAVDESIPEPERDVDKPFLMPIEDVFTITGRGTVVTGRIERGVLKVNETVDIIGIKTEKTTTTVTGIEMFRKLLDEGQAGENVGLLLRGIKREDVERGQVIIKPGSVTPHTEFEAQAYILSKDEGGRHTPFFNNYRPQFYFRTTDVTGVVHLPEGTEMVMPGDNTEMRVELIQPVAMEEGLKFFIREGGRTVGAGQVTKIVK

C/C=C\C=C\[C@@H]1O[C@](O)([C@H](CC)C(=O)NC/C=C/C=C(\C)[C@@H](OC)[C@@H](C)[C@@H]2O[C@H](/C=C/C=C/C=C(\C)C(=O)c3c(O)ccn(C)c3=O)[C@H](O)[C@@H]2O)[C@H](O)[C@H](O)C1(C)C [aurodox, N-Methylmocimycin]
elfamycin binding (migration in non-denaturing PAGE) (SrEF-Tu A378T): unaffected | elfamycin binding (migration in non-denaturing PAGE) (SrEF-Tu A378F): unaffected | elfamycin binding (migration in non-denaturing PAGE) (SrEF-Tu A378V): unaffected | elfamycin binding (migration in non-denaturing PAGE) (SrEF-Tu A378P): unaffected | elfamycin binding (migration in non-denaturing PAGE) [1]: appears to bind | elfamycin binding (migration in non-denaturing PAGE) [2]: unable to bind
